Test results: patent publication US12258328B2, “6-membered heteroaryl-containing aminopyridine compounds as EGFR inhibitors” (YUHAN CORPORATION, priority 2021, dated 2025)
Like-named read-outs stand apart in the source and are kept apart here.

What was measured:
EGFR L858R/C797S = EGFR L858R/C797S (Homo sapiens, UniProt P00533, C797S/L858R); test: Biochemical EGFR kinase assay (Lance Ultra TR-FRET), double mutant L858R/C797S
Description: (§1) Biochemical EGFR kinase assays were conducted using Lance Ultra time-resolved fluorescence resonance energy transfer (TR-FRET) technology from Perkin-Elmer. Compounds of the invention were initially diluted to 20 mM in 100% DMSO for storage and made into kinase buffer solution to create a compound concentration ranging from 0.003 μM and 10 μM.
(§2) Each kinase reactions were incubated at room temperature for 1 hour and then stopped by the addition of 4 μL of stop solution (10 mM EDTA). The specific Europium-labeled-anti-phosphopeptide antibody (PerkinElmer, AD0069) diluted in LANCE detection buffer was then added to a final concentration of 2 nM. After 60 minutes incubation at room temperature the LANCE signal was measured on an EnVision Multilabel Reader (Perkin-Elmer). Excitation wavelength was set at 320 nm and emission monitored at 615 nm (donor) and 665 nm (acceptor). The IC50 values were determined using GraphPad prism software (GraphPad Software, Inc., San Diego, CA, USA).

EGFR del19/T790M/C797S = EGFR del19/T790M/C797S (Homo sapiens, UniProt P00533, C797S/DEL746-750/T790M); test: Biochemical EGFR kinase assay (Lance Ultra TR-FRET), triple mutant del19/T790M/C797S
Description: as §1, §2

EGFR wildtype = EGFR wildtype (Homo sapiens, UniProt P00533); test: Biochemical EGFR kinase assay (Lance Ultra TR-FRET), wildtype
Description: as §1, §2

EGFR L858R/T790M/C797S = EGFR L858R/T790M/C797S (Homo sapiens, UniProt P00533, C797S/L858R/T790M); test: Biochemical EGFR kinase assay (Lance Ultra TR-FRET), triple mutant L858R/T790M/C797S
Description: as §1, §2

EGFR del19/C797S = EGFR del19/C797S (Homo sapiens, UniProt P00533, C797S/DEL746-750); test: Biochemical EGFR kinase assay (Lance Ultra TR-FRET), double mutant del19/C797S
Description: as §1, §2

[1] = IC50 L858R/C797S (nM) 100 μM ATP, 100 μM ATP
[2] = IC50 del19/T790M/C797S (nM) 100 μM ATP, 100 μM ATP
[3] = IC50 WT (nM) 100 μM ATP, 100 μM ATP
[4] = IC50 L858R/T790M/C797S (nM) 100 μM ATP, 100 μM ATP
[5] = IC50 del19/C797S (nM) 100 μM ATP, 100 μM ATP
[6] = Km ATP, read-out: IC50 L858R/C797S (nM) Km ATP
[7] = Km ATP, read-out: IC50 del19/T790M/C797S (nM) Km ATP
[8] = Km ATP, read-out: IC50 WT (nM) Km ATP
[9] = Km ATP, read-out: IC50 L858R/T790M/C797S (nM) Km ATP
[10] = Km ATP, read-out: IC50 del19/C797S (nM) Km ATP

EGFR del19/T790M/C797S, sequence (P00533 with tags, fused parts or gaps DEL746-750/T790M/C797S): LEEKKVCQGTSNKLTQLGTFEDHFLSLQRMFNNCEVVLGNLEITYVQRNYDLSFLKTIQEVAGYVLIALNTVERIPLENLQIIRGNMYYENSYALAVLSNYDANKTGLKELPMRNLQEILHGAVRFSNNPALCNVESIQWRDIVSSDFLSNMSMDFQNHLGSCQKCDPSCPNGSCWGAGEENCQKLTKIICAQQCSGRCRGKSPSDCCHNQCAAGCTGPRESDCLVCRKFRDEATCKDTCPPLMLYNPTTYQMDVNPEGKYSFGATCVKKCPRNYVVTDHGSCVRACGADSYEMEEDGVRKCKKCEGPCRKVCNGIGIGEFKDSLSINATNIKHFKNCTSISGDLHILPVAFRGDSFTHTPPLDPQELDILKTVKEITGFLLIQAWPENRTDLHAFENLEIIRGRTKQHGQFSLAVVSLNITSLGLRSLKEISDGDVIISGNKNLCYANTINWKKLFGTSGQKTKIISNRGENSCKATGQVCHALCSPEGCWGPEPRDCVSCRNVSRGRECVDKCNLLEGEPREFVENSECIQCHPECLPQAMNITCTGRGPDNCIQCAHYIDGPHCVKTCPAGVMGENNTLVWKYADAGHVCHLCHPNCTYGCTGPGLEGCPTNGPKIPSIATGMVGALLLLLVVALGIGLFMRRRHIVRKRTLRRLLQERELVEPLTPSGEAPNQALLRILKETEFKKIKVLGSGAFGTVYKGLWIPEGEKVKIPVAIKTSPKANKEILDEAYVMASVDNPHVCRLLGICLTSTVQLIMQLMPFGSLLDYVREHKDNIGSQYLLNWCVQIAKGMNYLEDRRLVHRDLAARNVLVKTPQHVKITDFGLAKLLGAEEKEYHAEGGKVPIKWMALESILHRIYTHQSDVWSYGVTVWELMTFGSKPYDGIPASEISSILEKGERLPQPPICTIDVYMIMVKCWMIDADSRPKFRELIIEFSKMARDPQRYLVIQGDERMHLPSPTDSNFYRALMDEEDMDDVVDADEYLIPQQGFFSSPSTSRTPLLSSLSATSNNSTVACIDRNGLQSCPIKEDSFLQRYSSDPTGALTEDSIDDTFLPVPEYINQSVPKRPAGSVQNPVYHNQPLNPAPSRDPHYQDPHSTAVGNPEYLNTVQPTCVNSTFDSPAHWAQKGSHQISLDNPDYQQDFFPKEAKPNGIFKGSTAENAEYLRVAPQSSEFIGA
EGFR del19/C797S, sequence (P00533 with tags, fused parts or gaps DEL746-750/C797S): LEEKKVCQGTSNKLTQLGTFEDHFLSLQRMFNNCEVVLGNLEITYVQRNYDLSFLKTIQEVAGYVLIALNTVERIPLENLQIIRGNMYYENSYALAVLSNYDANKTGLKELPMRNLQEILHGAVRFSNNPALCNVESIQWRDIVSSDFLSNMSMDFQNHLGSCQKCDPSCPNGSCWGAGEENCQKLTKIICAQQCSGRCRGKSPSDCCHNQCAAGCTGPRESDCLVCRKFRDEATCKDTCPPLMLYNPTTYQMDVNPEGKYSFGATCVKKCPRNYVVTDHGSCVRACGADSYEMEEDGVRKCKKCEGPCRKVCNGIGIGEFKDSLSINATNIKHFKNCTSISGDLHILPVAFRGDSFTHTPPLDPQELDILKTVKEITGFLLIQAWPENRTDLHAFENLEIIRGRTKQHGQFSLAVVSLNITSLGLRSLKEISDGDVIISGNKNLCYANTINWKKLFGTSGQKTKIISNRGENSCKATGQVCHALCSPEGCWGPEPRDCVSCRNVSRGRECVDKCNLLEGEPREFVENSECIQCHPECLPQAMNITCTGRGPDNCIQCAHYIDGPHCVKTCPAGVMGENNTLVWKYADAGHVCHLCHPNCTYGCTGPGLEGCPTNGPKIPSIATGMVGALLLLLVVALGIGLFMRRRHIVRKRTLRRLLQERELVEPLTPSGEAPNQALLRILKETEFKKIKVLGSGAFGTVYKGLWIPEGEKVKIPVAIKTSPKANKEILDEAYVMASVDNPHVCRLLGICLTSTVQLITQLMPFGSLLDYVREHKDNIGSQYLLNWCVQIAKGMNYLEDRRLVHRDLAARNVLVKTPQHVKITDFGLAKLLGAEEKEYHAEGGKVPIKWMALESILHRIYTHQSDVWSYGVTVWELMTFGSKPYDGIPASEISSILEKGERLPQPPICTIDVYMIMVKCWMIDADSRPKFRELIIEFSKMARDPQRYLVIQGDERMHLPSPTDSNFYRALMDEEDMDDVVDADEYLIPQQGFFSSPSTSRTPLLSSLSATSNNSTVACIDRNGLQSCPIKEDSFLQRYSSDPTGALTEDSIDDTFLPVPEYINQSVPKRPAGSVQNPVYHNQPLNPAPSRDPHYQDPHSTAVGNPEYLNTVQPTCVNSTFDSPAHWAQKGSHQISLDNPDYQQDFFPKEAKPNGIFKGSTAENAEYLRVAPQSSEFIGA
EGFR wildtype, sequence (P00533 25-1210): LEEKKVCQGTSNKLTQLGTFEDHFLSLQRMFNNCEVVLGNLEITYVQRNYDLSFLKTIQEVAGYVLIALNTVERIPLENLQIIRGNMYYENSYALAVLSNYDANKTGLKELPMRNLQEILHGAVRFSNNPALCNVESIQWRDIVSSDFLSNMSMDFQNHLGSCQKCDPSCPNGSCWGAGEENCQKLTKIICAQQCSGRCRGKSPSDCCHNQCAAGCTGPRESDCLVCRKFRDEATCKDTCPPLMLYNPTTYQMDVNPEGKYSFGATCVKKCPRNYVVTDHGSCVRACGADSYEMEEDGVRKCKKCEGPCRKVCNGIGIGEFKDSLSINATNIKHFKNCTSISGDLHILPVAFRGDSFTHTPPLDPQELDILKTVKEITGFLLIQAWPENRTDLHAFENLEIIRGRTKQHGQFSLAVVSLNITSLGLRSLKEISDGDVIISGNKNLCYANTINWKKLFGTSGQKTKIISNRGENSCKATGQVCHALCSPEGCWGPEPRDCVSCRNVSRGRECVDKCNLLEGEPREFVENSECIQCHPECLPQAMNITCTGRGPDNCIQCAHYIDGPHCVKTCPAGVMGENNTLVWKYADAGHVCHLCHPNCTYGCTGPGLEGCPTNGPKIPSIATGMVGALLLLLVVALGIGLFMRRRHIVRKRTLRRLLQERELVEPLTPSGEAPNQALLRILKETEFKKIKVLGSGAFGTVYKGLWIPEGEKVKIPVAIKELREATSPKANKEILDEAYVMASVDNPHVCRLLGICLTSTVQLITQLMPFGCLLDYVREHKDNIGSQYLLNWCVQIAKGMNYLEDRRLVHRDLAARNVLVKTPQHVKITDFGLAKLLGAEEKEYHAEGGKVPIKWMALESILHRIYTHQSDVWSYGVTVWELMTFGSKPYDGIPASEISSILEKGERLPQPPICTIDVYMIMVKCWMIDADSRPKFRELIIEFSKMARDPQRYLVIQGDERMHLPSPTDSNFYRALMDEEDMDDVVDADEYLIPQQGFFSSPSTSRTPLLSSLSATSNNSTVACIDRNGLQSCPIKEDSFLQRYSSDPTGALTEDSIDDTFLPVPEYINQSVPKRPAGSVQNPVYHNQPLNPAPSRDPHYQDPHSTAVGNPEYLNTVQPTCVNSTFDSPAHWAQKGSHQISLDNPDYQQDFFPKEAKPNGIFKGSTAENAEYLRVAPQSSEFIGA
EGFR L858R/T790M/C797S, sequence (P00533 25-1210 T790M/C797S/L858R): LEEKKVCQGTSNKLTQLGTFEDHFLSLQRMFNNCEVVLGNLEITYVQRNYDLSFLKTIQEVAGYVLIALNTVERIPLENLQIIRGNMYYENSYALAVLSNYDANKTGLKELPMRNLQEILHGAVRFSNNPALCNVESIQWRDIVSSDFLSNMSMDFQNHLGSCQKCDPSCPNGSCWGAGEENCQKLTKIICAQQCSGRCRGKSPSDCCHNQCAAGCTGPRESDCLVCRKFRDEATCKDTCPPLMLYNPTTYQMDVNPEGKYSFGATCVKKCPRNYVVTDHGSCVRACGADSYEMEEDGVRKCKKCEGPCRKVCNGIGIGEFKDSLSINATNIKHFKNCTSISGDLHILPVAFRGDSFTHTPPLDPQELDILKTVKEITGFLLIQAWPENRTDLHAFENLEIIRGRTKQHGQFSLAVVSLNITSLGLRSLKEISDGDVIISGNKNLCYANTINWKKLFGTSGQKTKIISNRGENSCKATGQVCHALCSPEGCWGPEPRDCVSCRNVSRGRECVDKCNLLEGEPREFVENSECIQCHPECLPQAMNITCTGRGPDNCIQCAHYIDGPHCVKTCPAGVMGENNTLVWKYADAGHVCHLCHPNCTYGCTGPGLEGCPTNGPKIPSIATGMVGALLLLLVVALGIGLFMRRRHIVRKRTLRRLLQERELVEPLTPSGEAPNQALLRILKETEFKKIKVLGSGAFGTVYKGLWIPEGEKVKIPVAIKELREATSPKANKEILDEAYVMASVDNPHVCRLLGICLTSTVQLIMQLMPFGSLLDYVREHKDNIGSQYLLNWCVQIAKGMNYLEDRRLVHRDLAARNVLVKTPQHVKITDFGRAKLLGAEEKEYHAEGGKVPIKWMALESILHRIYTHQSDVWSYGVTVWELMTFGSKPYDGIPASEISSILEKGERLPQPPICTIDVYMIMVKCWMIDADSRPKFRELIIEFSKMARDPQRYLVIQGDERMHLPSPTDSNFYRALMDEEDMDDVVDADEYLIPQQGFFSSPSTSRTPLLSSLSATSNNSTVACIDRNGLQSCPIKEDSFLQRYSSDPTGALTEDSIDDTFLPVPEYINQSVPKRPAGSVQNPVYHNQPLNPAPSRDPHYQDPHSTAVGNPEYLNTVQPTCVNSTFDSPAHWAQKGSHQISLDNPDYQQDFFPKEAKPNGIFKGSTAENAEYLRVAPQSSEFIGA

| Compound | IC50 (EGFR L858R/C797S; [1]) [nM] | IC50 (EGFR del19/T790M/C797S; [2]) [nM] | IC50 (EGFR wildtype; [3]) [nM] | IC50 (EGFR L858R/T790M/C797S; [4]) [nM] | IC50 (EGFR del19/C797S; [5]) [nM] | IC50 (EGFR L858R/C797S; [6]) [nM] | IC50 (EGFR del19/T790M/C797S; [7]) [nM] | IC50 (EGFR wildtype; [8]) [nM] | IC50 (EGFR L858R/T790M/C797S; [9]) [nM] | IC50 (EGFR del19/C797S; [10]) [nM] |
| --- | --- | --- | --- | --- | --- | --- | --- | --- | --- | --- |
| CN1CCN(Cc2cccc(-c3cnc(Nc4ccnc(-c5cnn(S(=O)(=O)C6CC6)c5)n4)cc3N[C@H]3CC[C@@](C)(O)CC3)n2)CC1 [Example 28, (1s,4s)-4-((6′-((2-(1-(Cyclopropylsulfonyl)-1H-pyrazol-4-yl)pyrimidin-4-yl)amino)-6-((4-methylpiperazin-1-yl)methyl)-[2,3′-bipyridin]-4′-yl)amino)-1-methylcyclohexan-1-ol] | 1.6 | 0.1 | 1530 | 0.1 | 0.6 |  |  |  |  |  |
| C[C@]1(O)CC[C@@H](Nc2cc(Nc3ccnc(-c4cnn(S(=O)(=O)C5CC5)c4)n3)ncc2-c2cccc(CN3CCOCC3)n2)CC1 [Example 29, (1s,4s)-4-((6′-((2-(1-(Cyclopropylsulfonyl)-1H-pyrazol-4-yl)pyrimidin-4-yl)amino)-6-(morpholinomethyl)-[2,3′-bipyridin]-4′-yl)amino)-1-methylcyclohexan-1-ol] | 26.2 | 0.2 | > 10000 | 0.4 | 1.8 |  |  |  |  |  |
| CN(C)Cc1cccc(-c2cnc(Nc3ccnc(-c4cnn(S(=O)(=O)C5CC5)c4)n3)cc2N[C@H]2CC[C@@](C)(O)CC2)n1 [Example 30, (1s,4s)-4-((6′-((2-(1-(Cyclopropylsulfonyl)-1H-pyrazol-4-yl)pyrimidin-4-yl)amino)-6-((dimethylamino)methyl)-[2,3′-bipyridin]-4′-yl)amino)-1-methylcyclohexan-1-ol] | 2 | 0.1 | 2910 | 0.1 | 0.4 |  |  |  |  |  |
| CN(C)Cc1ccc(-c2cnc(Nc3ccnc(-c4cnn(S(=O)(=O)C5CC5)c4)n3)cc2N[C@H]2CC[C@@](C)(O)CC2)nc1 [Example 31, (1s,4s)-4-((6′-((2-(1-(Cyclopropylsulfonyl)-1H-pyrazol-4-yl)pyrimidin-4-yl)amino)-5-((dimethylamino)methyl)-[2,3′-bipyridin]-4′-yl)amino)-1-methylcyclohexan-1-ol] | 0.8 | 0.2 | 52.6 | 0.1 | 0.1 | 0.1 | 0.2 | 0.3 | 0.1 | 0.1 |
| C[C@]1(O)CC[C@@H](Nc2cc(Nc3ccnc(-c4cnn(S(=O)(=O)C5CC5)c4)n3)ncc2-c2ccc(CN3CCOCC3)cn2)CC1 [Example 32, (1s,4s)-4-((6′-((2-(1-(Cyclopropylsulfonyl)-1H-pyrazol-4-yl)pyrimidin-4-yl)amino)-5-(morpholinomethyl)-[2,3′-bipyridin]-4′-yl)amino)-1-methylcyclohexan-1-ol] | 1.9 | 0.4 | 120 | 0.3 | 0.1 | 0.1 | 0.2 | 0.3 | 0.2 | 0.2 |
| C[C@]1(O)CC[C@@H](Nc2cc(Nc3ccnc(-c4cnn(S(=O)(=O)C5CC5)c4)n3)ncc2-c2ccc(CN3CCC(F)(F)CC3)cn2)CC1 [Example 33, (1s,4s)-4-((6′-((2-(1-(Cyclopropylsulfonyl)-1H-pyrazol-4-yl)pyrimidin-4-yl)amino)-5-((4,4-difluoropiperidin-1-yl)methyl)-[2,3′-bipyridin]-4′-yl)amino)-1-methylcyclohexan-1-ol] | 29.3 | 3.9 | 813 | 3.1 | 1.3 | 1.7 | 2.6 | 7.9 | 1.7 | 2.1 |
| CC(C)N1CCN(Cc2ccc(-c3cnc(Nc4ccnc(-c5cnn(S(=O)(=O)C6CC6)c5)n4)cc3N[C@H]3CC[C@@](C)(O)CC3)nc2)CC1 [Example 34, (1s,4s)-4-((6′-((2-(1-(Cyclopropylsulfonyl)-1H-pyrazol-4-yl)pyrimidin-4-yl)amino)-5-((4-isopropylpiperazin-1-yl)methyl)-[2,3′-bipyridin]-4′-yl)amino)-1-methylcyclohexan-1-ol] | 0.2 | 0.6 | 61.1 | 0.3 | 0.4 | 0.1 | 0.6 | 0.5 | 0.1 | 0.2 |
| C[C@]1(O)CC[C@@H](Nc2cc(Nc3ccnc(-c4cnn(S(=O)(=O)C5CC5)c4)n3)ncc2-c2ccccn2)CC1 [Example 35, (1s,4s)-4-((6′-((2-(1-(Cyclopropylsulfonyl)-1H-pyrazol-4-yl)pyrimidin-4-yl)amino)-[2,3′-bipyridin]-4′-yl)amino)-1-methylcyclohexan-1-ol] |  | 0.3 | 811 | 0.3 | 0.2 | 0.3 | 0.6 |  | 0.2 | 0.3 |
| O=S(=O)(C1CC1)n1cc(-c2nccc(Nc3cc(N[C@H]4CC[C@@H](NCCF)CC4)c(-c4ccccn4)cn3)n2)cn1 [Example 36, N^6′-(2-(1-(Cyclopropylsulfonyl)-1H-pyrazol-4-yl)pyrimidin-4-yl)-N^4′-((1s,4s)-4-((2-fluoroethyl)amino)cyclohexyl)-[2,3′-bipyridine]-4′,6′-diamine] | 15.7 | 0.2 | 3080 | 0.1 | 0.9 | 1 | 0.1 | 5.8 | 0.1 | 0.5 |
| O=S(=O)(C1CC1)n1cc(-c2nccc(Nc3cc(N[C@H]4CC[C@](O)(CO)CC4)c(-c4ccccn4)cn3)n2)cn1 [Example 37, (1s,4s)-4-((6′-((2-(1-(Cyclopropylsulfonyl)-1H-pyrazol-4-yl)pyrimidin-4-yl)amino)-[2,3′-bipyridin]-4′-yl)amino)-1-(hydroxymethyl)cyclohexan-1-ol] | 21.3 | 0.2 | > 10000 | 0.3 | 1.1 | 0.7 | 0.2 | 6.6 | 0.1 | 0.7 |
| C[C@]1(O)CC[C@@H](Nc2cc(Nc3ccnc(-c4cnn(S(=O)(=O)C5CC5)c4)n3)ncc2-c2ccc(N3CCOCC3)cn2)CC1 [Example 38, (1s,4s)-4-((6′-((2-(1-(Cyclopropylsulfonyl)-1H-pyrazol-4-yl)pyrimidin-4-yl)amino)-5-morpholino-[2,3′-bipyridin]-4′-yl)amino)-1-methylcyclohexan-1-ol] | 4.3 | 0.4 | 1430 | 0.7 | 0.6 | 0.9 |  |  | 0.2 | 0.3 |
| CN(C)c1cnc(-c2cnc(Nc3ccnc(-c4cnn(S(=O)(=O)C5CC5)c4)n3)cc2N[C@H]2CC[C@@](C)(O)CC2)nc1 [Example 39, (1s,4s)-4-((2-((2-(1-(Cyclopropylsulfonyl)-1H-pyrazol-4-yl)pyrimidin-4-yl)amino)-5-(5-(dimethylamino)pyrimidin-2-yl)pyridin-4-yl)amino)-1-methylcyclohexan-1-ol] | 74.8 | 2.1 | > 10000 | 0.7 |  | 8.7 | 1 | 26 | 0.4 | 2.5 |
